The values below come from PubChem BioAssay AID2060343 (Molecular Pharmacology Branch, DTP, NCI, 2025).

“And” between values parts separate entries of the source, which are not always exact repeats. Equal entries are not always repeated.

In the assay the test system is 138582-337-R-J1-PDC spheroids with HUVEC/MSC, viability. The assay is described as follows: Anticancer human tumor 138582-337-R-J1-PDC patient-derived Merkel cell tumor cell line growth inhibition [IpAb]. Conditions: for viability, T/C: stronger effect = lower value. In outline:
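Multi-cell spheroids of 60% tumour cells, 25% HUVEC and 15% MSC in ultra-low-attachment U-bottom wells, treated with agents combined with ipatasertib or abemaciclib. Half-log ranges top out near clinical Cmax, or 10 microM when Cmax is unknown.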

Setting [1] is: curve of first compound, second compound 0.1 µM.
[2] abbreviates: curve of first compound, second compound 0.316 µM.
[3] abbreviates: curve of first compound, second compound 1 µM.
Where [4] appears, read: curve of first compound, second compound 3.16 µM.
[5] abbreviates: curve of first compound, second compound 10 µM.
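Further: spheroids exposed to compounds for seven days.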
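Wherever viability, T/C is given: 100% = DMSO vehicle control viability.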

As usually defined, the viability, T/C is the ratio of treated to control. For orientation: IC50 means the concentration at which inhibition is half-maximal. Take `C=CCn1c(=O)c2cnc(Nc3ccc(N4CCN(C)CC4)cc3)nc2n1-c1cccc(C(C)(C)O)n1`: the viability, T/C was 96.7% and 116% (compound 0.0316 µM); 93.5% and 103% (compound 0.1 µM); 98.4% and 90.7% (compound 0.316 µM); 102% and 89.4% (compound 1 µM); 126% and 110% (compound 3.16 µM); 137% and 139% (compound 10 µM). Moreover, under “curve of compound”, the IC50 was > 10000 nM.

`CC(C)NCC(C(=O)N1CCN(c2ncnc3c2C(C)CC3O)CC1)c1ccc(Cl)cc1` (stereo not given): the viability, T/C (compound 0.1 µM) was 92.1% [middle of 13 runs]; the viability, T/C (compound 0.316 µM) was 79.9% [middle of 13 runs]; the viability, T/C (compound 1 µM) is 64.4% [middle of 13 runs]; the viability, T/C (compound 3.16 µM) was 53.1% [middle of 13 runs]; the viability, T/C (compound 10 µM) is 42.7% [middle of 13 runs].

As to `CC(C)n1nc(-c2ccc3oc(N)nc3c2)c2c(N)ncnc21` + CC(C)NCC(C(=O)N1CCN(c2ncnc3c2C(C)CC3O)CC1)c1ccc(Cl)cc1, the IC50 reads like this: under setting [1], 22.4 nM; under setting [2], 7.57 nM; under setting [3], 1.97 nM; under setting [4], 0.362 nM; under setting [5], < 0.316 nM. The viability, T/C is 96.3% (second compound 0.1 µM, first compound 0.000316 µM); 89.2% (second compound 0.1 µM, first compound 0.001 µM); 70% (second compound 0.1 µM, first compound 0.00316 µM); 64.1% (second compound 0.1 µM, first compound 0.01 µM); 43.8% (second compound 0.1 µM, first compound 0.0316 µM); 31.9% (second compound 0.1 µM, first compound 0.1 µM). The viability, T/C runs as follows: (second compound 0.316 µM, first compound 0.000316 µM) 67.8%; (second compound 0.316 µM, first compound 0.001 µM) 66%; (second compound 0.316 µM, first compound 0.00316 µM) 61.8%; (second compound 0.316 µM, first compound 0.01 µM) 44.1%; (second compound 0.316 µM, first compound 0.0316 µM) 37%; (second compound 0.316 µM, first compound 0.1 µM) 26.8%. The viability, T/C was 63.1% (second compound 1 µM, first compound 0.000316 µM); 54.1% (second compound 1 µM, first compound 0.001 µM); 47.5% (second compound 1 µM, first compound 0.00316 µM); 36.2% (second compound 1 µM, first compound 0.01 µM); 27.5% (second compound 1 µM, first compound 0.0316 µM); 22% (second compound 1 µM, first compound 0.1 µM). Also, the viability, T/C by setting is: (second compound 3.16 µM, first compound 0.000316 µM) 50%; (second compound 3.16 µM, first compound 0.001 µM) 47.3%; (second compound 3.16 µM, first compound 0.00316 µM) 36%; (second compound 3.16 µM, first compound 0.01 µM) 27.3%; (second compound 3.16 µM, first compound 0.0316 µM) 19.6%; (second compound 3.16 µM, first compound 0.1 µM) 17.5%. Besides, the viability, T/C is, setting by setting: (second compound 10 µM, first compound 0.000316 µM) 40.5%; (second compound 10 µM, first compound 0.001 µM) 35.9%; (second compound 10 µM, first compound 0.00316 µM) 31.6%; (second compound 10 µM, first compound 0.01 µM) 21.8%; (second compound 10 µM, first compound 0.0316 µM) 14.4%; (second compound 10 µM, first compound 0.1 µM) 12.3%.

On to `CCCS(=O)(=O)Nc1ccc(F)c(C(=O)c2c[nH]c3ncc(-c4ccc(Cl)cc4)cc23)c1F`, for which the viability, T/C by setting is: (compound 0.0316 µM) 96.5% and 102%; (compound 0.1 µM) 89.8% and 97.6%; (compound 0.316 µM) 101% and 98.8%; (compound 1 µM) 92.3% and 99%; (compound 3.16 µM) 115% and 116%; (compound 10 µM) 97.3% and 81.5%. In addition, the half-inhibitory concentration (IC50) (curve of compound) was > 10000 nM.

Take `CCN1CCN(Cc2ccc(Nc3ncc(F)c(-c4cc(F)c5nc(C)n(C(C)C)c5c4)n3)nc2)CC1`: the viability, T/C is, setting by setting: (compound 0.01 µM) 96.6% [middle of 13 runs]; (compound 0.0316 µM) 90.6% [middle of 13 runs]; (compound 0.1 µM) 90.9% [middle of 13 runs]; (compound 0.316 µM) 90.5% [middle of 13 runs]; (compound 1 µM) 96.4% [middle of 13 runs]. Besides, the IC50 (compound alone, run of 05/18/2021) was > 1000 nM.

With `CC(C)(C)c1cnc(CSc2cnc(NC(=O)C3CCNCC3)s2)o1` + CC(C)NCC(C(=O)N1CCN(c2ncnc3c2C(C)CC3O)CC1)c1ccc(Cl)cc1, the IC50 reads like this: under setting [1], 94.5 nM; under setting [2], 76.7 nM; under setting [3], 52.9 nM; under setting [4], 37.1 nM; under setting [5], < 9.49 nM. In addition, the viability, T/C runs as follows: (second compound 0.1 µM, first compound 0.00949 µM) 104%; (second compound 0.1 µM, first compound 0.03 µM) 97.3%; (second compound 0.1 µM, first compound 0.0949 µM) 50.3%; (second compound 0.1 µM, first compound 0.3 µM) 0.31%; (second compound 0.1 µM, first compound 0.949 µM) 0.3%; (second compound 0.1 µM, first compound 3 µM) 0.37%. Besides, the viability, T/C (second compound 0.316 µM, first compound 0.00949 µM) is 79%; the viability, T/C (second compound 0.316 µM, first compound 0.03 µM) was 74.3%; the viability, T/C (second compound 0.316 µM, first compound 0.0949 µM) is 44.2%; the viability, T/C (second compound 0.316 µM, first compound 0.3 µM) is 0.31%; the viability, T/C (second compound 0.316 µM, first compound 0.949 µM) is 0.36%; the viability, T/C (second compound 0.316 µM, first compound 3 µM) is 0.44%. For the same compound, the viability, T/C was 72.7% (second compound 1 µM, first compound 0.00949 µM); 72.2% (second compound 1 µM, first compound 0.03 µM); 27% (second compound 1 µM, first compound 0.0949 µM); 0.41% (second compound 1 µM, first compound 0.3 µM); 0.35% (second compound 1 µM, first compound 0.949 µM); 0.37% (second compound 1 µM, first compound 3 µM). In addition, the viability, T/C runs as follows: (second compound 3.16 µM, first compound 0.00949 µM) 55.2%; (second compound 3.16 µM, first compound 0.03 µM) 58.7%; (second compound 3.16 µM, first compound 0.0949 µM) 19.5%; (second compound 3.16 µM, first compound 0.3 µM) 0.33%; (second compound 3.16 µM, first compound 0.949 µM) 0.23%; (second compound 3.16 µM, first compound 3 µM) 0.81%. Moreover, the viability, T/C is 43.8% (second compound 10 µM, first compound 0.00949 µM); 43.9% (second compound 10 µM, first compound 0.03 µM); 5.74% (second compound 10 µM, first compound 0.0949 µM); 0.5% (second compound 10 µM, first compound 0.3 µM); 0.35% (second compound 10 µM, first compound 0.949 µM); 0.49% (second compound 10 µM, first compound 3 µM).
